# Test results reported in US8034812B2, “Imidazopyridazine derivative having kinase inhibitory activity and pharmaceutical agent thereof” (Takeda Pharmaceutical Company Limited, priority 2006, dated 2011).
# Molecular target: T1, BRAF (V600E) enzyme (Homo sapiens, UniProt P15056, V600E)
# T1 construct: area encoding the BRAF kinase domain region, so that the protein contains an N-terminal Flag; made in house; host or cells: SF-21 insect cells, recombinant baculovirus BAC-V600E
# Assay: Determination of BRAF (V600E) kinase inhibitory activity ([γ-32P]ATP, GST-MEK1 (K96R) substrate)
# Assay type: biochemical
# Details: read-out: BRAF (V600E) kinase inhibitory rate
# Description: Human BRAF gene was cloned by PCR using human Testis cDNA library (Clontech) as a template. The primer used for PCR was prepared from base sequence (Genbank Accession NM_004333) information of BRAF gene by adding a base sequence encoding flag peptide and a recognition sequence of the restriction enzyme to area encoding the BRAF kinase domain region, so that the protein contains an N-terminal Flag. The primer base sequence is shown below.
# The PCR reaction was conducted using Pyrobest (Takara Shuzo Co., Ltd). The obtained PCR product was electrophoresed on agarose gel (1%), the DNA fragment amplified by PCR was recovered from the gel, and then digested with restriction enzymes EcoRI and SalI. The DNA treated with the restriction enzymes was electrophoresed on agarose gel (1%), and the obtained DNA fragment was recovered and ligated to plasmid pFASTBAC1 (Invitrogen) digested with restriction enzymes EcoRI and SalI to give expression plasmid pFB-BRAF, and the base sequence of the insert fragment was confirmed. In addition, mutation was introduced into V600E using a Quick change Site Directed Mutagenesis kit (Stratagene). The nucleotide sequences of the primers used are shown in the following.
# SF-21 cells were sown at 1×10^6 cells/mL to Sf-900II SFM medium (1 L, Invitrogen) containing 10% fetal bovine serum (Trace), 50 mg/L Gentamicin (Invitrogen) and 0.1% Pluronic F-68 (Invitrogen), and shaking culture was performed using a 2 L volume Erlenmeyer flask at 27° C., 100 rpm. After culturing for 24 hrs, recombinant baculovirus BAC-V600E (13.4 mL) was added to the mixture, and the mixture was further cultured for 3 days. The culture medium was centrifuged at 2,000 rpm for 5 min to give virus-infected cells. The infected cells were washed with a phosphate buffered saline (Invitrogen), centrifuged under the same conditions, and the cells were preserved at −80° C. The cryopreserved cells were thawed in ice, suspended in buffer A (50 mM Tris buffer (30 mL, pH 7.4) containing 20% glycerol, 0.15 M NaCl) supplemented with Complete Protease Inhibitor (Boehringer), and ruptured 3 times with a Polytron homogenizer (Kinematica) at 20,000 rpm for 30 sec. The ruptured medium was clarified by centrifugation at 40,000 rpm for 30 min and filtered with a 0.45 μm filter. The filtrate was passed through a column packed with Anti-FLAG M2 Affinity Gel (4 mL, Sigma) at a flow rate of about 0.5 mL/min. The column was washed with buffer A, and eluted with buffer A containing 100 μg/mL of FLAG peptide. The buffer of this concentrate was exchanged using NAP25 column (Amersham Bioscience) equilibrated with buffer A and the fractions were cryopreserved at −80° C.
# A test compound (2.5 μl) dissolved in dimethyl sulfoxide (DMSO) was added to 37.5 μl of a reaction solution (25 mM HEPES (pH 7.5), 10 mM magnesium acetate, 1 mM dithiothreitol) containing BRAF (V600E) enzyme (30 ng) and recombinant type protein GST-MEK1 (K96R) 250 ng, and the mixture was incubated at room temperature for 10 min. ATP solution (10 μl) (2.5 μM ATP, 0.1 μCi [γ-^32P]ATP) was added to the obtained mixture, and the mixture was reacted at room temperature for 20 min. The reaction was quenched by adding 50 μL of ice-cooled 20% trichloroacetic acid (Wako Pure Chemical Industries, Ltd.). The reaction solution was allowed to stand at 4° C. for 30 min, and the acid-precipitable fraction was transferred to GF/C filter plate (Millipore Corporation) using cell harvester (PerkinElmer). The plate was dried at 45° C. for 60 min, and 40 μL of MicroScinti 0 (PerkinElmer) was added thereto. The radioactivity was measured using TopCount (PerkinElmer). The kinase inhibitory rate (%) of the test compound was calculated by the following formula: Inhibitory rate(%)=(1−(count of test compound−blank)÷(control−blank))×100
# The count of the solution reacted without addition of the compound was used as a “control”, and the count of the solution without the compound and enzyme was used as a “blank”. […]
# T1 sequence (P15056 457-717 V600E limits assumed): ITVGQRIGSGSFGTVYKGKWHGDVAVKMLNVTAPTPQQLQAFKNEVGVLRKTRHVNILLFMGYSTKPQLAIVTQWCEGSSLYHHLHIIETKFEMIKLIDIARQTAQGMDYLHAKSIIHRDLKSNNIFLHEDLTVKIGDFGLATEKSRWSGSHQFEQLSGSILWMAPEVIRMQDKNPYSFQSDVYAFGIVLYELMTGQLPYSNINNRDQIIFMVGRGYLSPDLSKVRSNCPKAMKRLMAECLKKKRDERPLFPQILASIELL
row,inhibition at 1 µM,Compound
1,≥ 90%,"O=C(Nc1cccc(Oc2ccc3nc(NC(=O)C4CC4)cn3n2)c1)c1cccc(C(F)(F)F)c1 [Example 319, N-[3-({2-[(cyclopropylcarbonyl)amino]imidazo[1,2-b]pyridazin-6-yl}oxy)phenyl]-3-(trifluoromethyl)benzamide]"
2,≥ 90%,"Cc1ccc(Oc2ccc3nc(NC(=O)C4CC4)cn3n2)cc1NC(=O)c1cccc(C(C)(C)C#N)c1 [Example 330, 3-(1-cyano-1-methylethyl)-N-[5-({2-[(cyclopropylcarbonyl)amino]imidazo[1,2-b]pyridazin-6-yl}oxy)-2-methylphenyl]benzamide]"
3,≥ 90%,"CNc1nccc(Nc2cn3nc(Oc4cccc(NC(=O)c5cccc(C(F)(F)F)c5)c4)ccc3n2)n1 [Example 70, N-{3-[(2-{[2-(methylamino)pyrimidin-4-yl]amino}imidazo[1,2-b]pyridazin-6-yl)oxy]phenyl}-3-(trifluoromethyl)benzamide]"
4,≥ 90%,"O=C(Nc1cccc(Oc2ccc3nc(NC(=O)C4CC4)cn3n2)c1)Nc1cccc(C(F)(F)F)c1 [Example 431, N-{6-[3-({[3-(trifluoromethyl)phenyl]carbamoyl}amino)phenoxy]imidazo[1,2-b]pyridazin-2-yl}cyclopropanecarboxamide]"
